The term Ki denotes a measure of affinity in units of concentration, obtained from inhibition or displacement. Low readings indicate higher affinity, high ones lower affinity.

These results are taken from ChEMBL document CHEMBL1131594, “Stereoisomers of cyclic urea HIV-1 protease inhibitors: synthesis and binding affinities” (J Med Chem, 1998).

For this experiment, the target named is Human immunodeficiency virus type 1 protease (Human immunodeficiency virus 1, UniProt Q72874). In words: Compound was tested for binding affinity against HIV-1 protease.

For `O=C1N(Cc2ccccc2)[C@@H](Cc2ccccc2)[C@@H](O)[C@H](O)[C@H](Cc2ccccc2)N1Cc1ccccc1`, the Ki came out at 3810 nM.
Consider `O=C1N(Cc2ccccc2)[C@H](Cc2ccccc2)[C@H](O)[C@H](O)[C@H](Cc2ccccc2)N1Cc1ccccc1`, for which the affinity, expressed as Ki, was 250 nM.
Compound `O=C1N(Cc2ccccc2)[C@H](Cc2ccccc2)[C@H](O)[C@@H](O)[C@H](Cc2ccccc2)N1Cc1ccccc1` returned a Ki of 64 nM.
`O=C1N(Cc2ccccc2)[C@@H](Cc2ccccc2)[C@H](O)[C@H](O)[C@H](Cc2ccccc2)N1Cc1ccccc1` showed a Ki of 1710 nM.
Compound `O=C1N(Cc2ccccc2)[C@@H](Cc2ccccc2)[C@H](O)[C@@H](O)[C@H](Cc2ccccc2)N1Cc1ccccc1` showed a Ki of 560 nM.
In the case of `O=C1N(Cc2ccccc2)[C@H](Cc2ccccc2)[C@@H](O)[C@H](O)[C@@H](Cc2ccccc2)N1Cc1ccccc1`, the affinity, expressed as Ki, was 1350 nM.
Then `O=C1N(Cc2ccccc2)[C@H](Cc2ccccc2)[C@@H](O)[C@H](O)[C@H](Cc2ccccc2)N1Cc1ccccc1`, with 6700 nM; and `O=C1N(Cc2ccccc2)[C@H](Cc2ccccc2)[C@H](O)[C@@H](O)[C@@H](Cc2ccccc2)N1Cc1ccccc1`, with 3.6 nM.
